Measured values taken from patent publication US20110236325A1, “METHODS TO TREAT OR PREVENT A SKIN CONDITION USING A NELL1 PEPTIDE” (NellOne Therapeutics, Inc., priority 2010, published 2011).

Key:
EFT-400 tissues [1] = experiment: Sunburned cell counts in UV-irradiated EpiDerm-FT (EFT-400) skin model tissues, H&E histology; assay type: cell-based, human
Protocol: Packaged tissues were stored at 4° C. overnight and then re-equilibrated in EFT-400-ASY medium overnight prior to the start of experiments. The sample size was n=3 for each treatment group in the gene expression experiments; and n=6 (two independent experiments of n=3) for the sunburned cell counts.
Treated and untreated tissues were exposed to UV irradiation with 200 mJ/cm^2UVB/29.94 mW/cm^2UVA simulated solar UV light (Honle-500 solar lamp).
(§1) At the conclusion of the 24 hour post-irradiation period, EFT-400 tissues were fixed in 10% formalin for 2 hours at room temperature (two independent experiments with n=3). Formalin fixed tissues were embedded in paraffin and 6 micron slices were stained with haematoxylin and eosin (H&E).

EFT-400 tissues [2] = experiment: Adverse effects of treatment on EFT-400 tissues (H&E stained histology); details: 50 μM in the basolateral medium
Protocol: as §1

EFT-400 tissues [3] = experiment: Gene expression by quantitative PCR custom array in EFT-400 tissues with or without UV irradiation; details: for AVG Ct ACTB (housekeeping gene) / AVG Ct AQP3 / AVG Ct BCL2L1 / AVG Ct COL1A1 / AVG Ct COL4A2 / AVG Ct COL5A1 / AVG Ct COL6A1 / AVG Ct COL6A2 / AVG Ct COL7A1 / AVG Ct COL8A1 / AVG Ct COL11A1 / AVG Ct COL12A1 / AVG Ct COL14A1 / AVG Ct COL15A1 / AVG Ct COL16A1 / AVG Ct CYP2E1 / AVG Ct DSG1 / AVG Ct ERCC1 / AVG Ct FN1 / AVG Ct GAPDH (housekeeping gene) / AVG Ct GDF15 / AVG Ct GSTM3 / AVG Ct HSPA8 / AVG Ct IL1A / AVG Ct IL1B / AVG Ct IL8 / AVG Ct KAL1 / AVG Ct KRT16 / AVG Ct LAMA1 / AVG Ct LAMA2 / AVG Ct LAMA3 / AVG Ct LAMA5 / AVG Ct LAMB1 / AVG Ct LAMB3 / AVG Ct LAMC1 / AVG Ct MMP1 / AVG Ct MMP2 / AVG Ct MT2A / AVG Ct PCNA / AVG Ct RPL13A (housekeeping gene) / AVG Ct SIRT1 / AVG Ct TGFBI / AVG Ct THBS3 / AVG Ct TNC / AVG Ct VTN: 50 uM Genistein
Protocol: EpiDerm-FT™ (EFT-400) tissues were produced and packaged in the MatTek Corporation GMP tissue culture production laboratories following standard procedures. Packaged tissues were stored at 4° C. overnight and then re-equilibrated in EFT-400-ASY medium overnight prior to the start of experiments. The sample size was n=3 for each treatment group in the gene expression experiments; and n=6 (two independent experiments of n=3) for the sunburned cell counts.
Total RNA was isolated from the EFT-400 tissues (RNAqueous kit, Ambion) (n=3) and utilized for gene expression analysis by quantitative PCR on an SABioscience custom array containing 42 Human Extracellular Matrix (ECM) and Adhesion Molecules RT^2 Profiler™ PCR Array, stress and toxicity genes whose expression, based on MatTek data, are known to be dramatically altered by UV-protective compounds on UV damaged skin. […] Further, there were three internal control spots on the array that corresponded to human genomic DNA contamination (HGDC), positive PCR control (PPC), and reverse transcription control (RTC).

With `O=c1c(-c2ccc(O)cc2)coc2cc(O)cc(O)c12` [Genistein, reference compound] the sunburned cell formation (EFT-400 tissues [1]; 50 μM, 200 mJ/cm2 UVB/29.94 mW/cm2 UVA, 24 hour post irradiation) was “did not decrease sunburned cell formation to the same extent as 100 ng/ml NELL1”, the “number of sunburned cells as compared to UV-only controls” value (EFT-400 tissues [1]; pre-treatment 30 minutes prior to UV, continued 24 hours post-irradiation) was “statistically significant reduction in the number of sunburned cells” and the “adverse effects on the EFT-400 tissues” value (EFT-400 tissues [2]) was “did not produce any noteworthy adverse effects”. For the same compound, the “activity in producing the observed effects (sunburned cells, gene expression)” value (EFT-400 tissues [3]; NELL1 protein at 100 ng/ml, genistein at 50 μM) was “most active in producing the observed effects”, the “AVG Ct ACTB (housekeeping gene)” value (EFT-400 tissues [3]; No UV) was 18.95 and the “AVG Ct AQP3” value (EFT-400 tissues [3]; No UV) was 23.75. The “AVG Ct BCL2L1” value (EFT-400 tissues [3]; No UV) was 24.35, the “AVG Ct COL1A1” value (EFT-400 tissues [3]; No UV) was 18.66 and the “AVG Ct COL4A2” value (EFT-400 tissues [3]; No UV) was 26.06. For the same compound, the “AVG Ct COL5A1” value (EFT-400 tissues [3]; No UV) was 23.19, the “AVG Ct COL6A1” value (EFT-400 tissues [3]; No UV) was 19.41 and the “AVG Ct COL6A2” value (EFT-400 tissues [3]; No UV) was 19.82. The “AVG Ct COL7A1” value (EFT-400 tissues [3]; No UV) was 26.3, the “AVG Ct COL8A1” value (EFT-400 tissues [3]; No UV) was 28.27 and the “AVG Ct COL11A1” value (EFT-400 tissues [3]; No UV) was 27.54. For the same compound, the “AVG Ct COL12A1” value (EFT-400 tissues [3]; No UV) was 25.19, the “AVG Ct COL14A1” value (EFT-400 tissues [3]; No UV) was 26.08 and the “AVG Ct COL15A1” value (EFT-400 tissues [3]; No UV) was 25.73. For the same compound, the “AVG Ct COL16A1” value (EFT-400 tissues [3]; No UV) was 24.6, the “AVG Ct CYP2E1” value (EFT-400 tissues [3]; No UV) was 31.05 and the “AVG Ct DSG1” value (EFT-400 tissues [3]; No UV) was 20.31. The “AVG Ct ERCC1” value (EFT-400 tissues [3]; No UV) was 24.94, the “AVG Ct FN1” value (EFT-400 tissues [3]; No UV) was 21.06 and the “AVG Ct GAPDH (housekeeping gene)” value (EFT-400 tissues [3]; No UV) was 17.74. For the same compound, the “AVG Ct GDF15” value (EFT-400 tissues [3]; No UV) was 27.52, the “AVG Ct GSTM3” value (EFT-400 tissues [3]; No UV) was 29.01 and the “AVG Ct HSPA8” value (EFT-400 tissues [3]; No UV) was 20.53. The “AVG Ct IL1A” value (EFT-400 tissues [3]; No UV) was 25.92, the “AVG Ct IL1B” value (EFT-400 tissues [3]; No UV) was 29.03 and the “AVG Ct IL8” value (EFT-400 tissues [3]; No UV) was 23.12. For the same compound, the “AVG Ct KAL1” value (EFT-400 tissues [3]; No UV) was 31.59, the “AVG Ct KRT16” value (EFT-400 tissues [3]; No UV) was 17.11 and the “AVG Ct LAMA1” value (EFT-400 tissues [3]; No UV) was 29.54. For the same compound, the “AVG Ct LAMA2” value (EFT-400 tissues [3]; No UV) was 25.35, the “AVG Ct LAMA3” value (EFT-400 tissues [3]; No UV) was 24.25 and the “AVG Ct LAMA5” value (EFT-400 tissues [3]; No UV) was 27.39. The “AVG Ct LAMB1” value (EFT-400 tissues [3]; No UV) was 23.3, the “AVG Ct LAMB3” value (EFT-400 tissues [3]; No UV) was 25.31 and the “AVG Ct LAMC1” value (EFT-400 tissues [3]; No UV) was 23.09. The “AVG Ct MMP1” value (EFT-400 tissues [3]; No UV) was 22.22, the “AVG Ct MMP2” value (EFT-400 tissues [3]; No UV) was 19.2 and the “AVG Ct MT2A” value (EFT-400 tissues [3]; No UV) was 18.74. The “AVG Ct PCNA” value (EFT-400 tissues [3]; No UV) was 23.76, the “AVG Ct RPL13A (housekeeping gene)” value (EFT-400 tissues [3]; No UV) was 20.65 and the “AVG Ct SIRT1” value (EFT-400 tissues [3]; No UV) was 26.45. The “AVG Ct TGFBI” value (EFT-400 tissues [3]; No UV) was 22.04, the “AVG Ct THBS3” value (EFT-400 tissues [3]; No UV) was 29.09 and the “AVG Ct TNC” value (EFT-400 tissues [3]; No UV) was 22.12. For the same compound, the “AVG Ct VTN” value (EFT-400 tissues [3]; No UV) was 32.74, the “expression of IL-1β elevated after UV exposure” value (EFT-400 tissues [3]; UV-irradiated) was “decrease in the expression” and the “expression of IL-8 elevated after UV exposure” value (EFT-400 tissues [3]; UV-irradiated) was “decrease in the expression”. The “expression of MMP-1 elevated after UV exposure” value (EFT-400 tissues [3]; UV-irradiated) was “decrease in the expression”, the “levels of AQP3 RNA after UV exposure” value (EFT-400 tissues [3]; UV-irradiated) was “did not have an effect on AQP3 levels” and the “reversing the UV-induced effects on gene expression” value (EFT-400 tissues [3]; UV-irradiated) was “most effective at reversing the UV-induced effects”. The “UV-elevated levels of AQP3” value (EFT-400 tissues [3]; UV-irradiated, genistein) was “did not have the same effect”, the “AVG Ct ACTB (housekeeping gene)” value (EFT-400 tissues [3]; UVB + UVA) was 18.85 and the “AVG Ct AQP3” value (EFT-400 tissues [3]; UVB + UVA) was 23.01. For the same compound, the “AVG Ct BCL2L1” value (EFT-400 tissues [3]; UVB + UVA) was 23.79, the “AVG Ct COL1A1” value (EFT-400 tissues [3]; UVB + UVA) was 18.54 and the “AVG Ct COL4A2” value (EFT-400 tissues [3]; UVB + UVA) was 21.82. The “AVG Ct COL5A1” value (EFT-400 tissues [3]; UVB + UVA) was 23.29, the “AVG Ct COL6A1” value (EFT-400 tissues [3]; UVB + UVA) was 19.47 and the “AVG Ct COL6A2” value (EFT-400 tissues [3]; UVB + UVA) was 19.68. For the same compound, the “AVG Ct COL7A1” value (EFT-400 tissues [3]; UVB + UVA) was 24.97, the “AVG Ct COL8A1” value (EFT-400 tissues [3]; UVB + UVA) was 27.28 and the “AVG Ct COL11A1” value (EFT-400 tissues [3]; UVB + UVA) was 27.6. For the same compound, the “AVG Ct COL12A1” value (EFT-400 tissues [3]; UVB + UVA) was 24.93, the “AVG Ct COL14A1” value (EFT-400 tissues [3]; UVB + UVA) was 25.69 and the “AVG Ct COL15A1” value (EFT-400 tissues [3]; UVB + UVA) was 25.83. The “AVG Ct COL16A1” value (EFT-400 tissues [3]; UVB + UVA) was 23.98, the “AVG Ct CYP2E1” value (EFT-400 tissues [3]; UVB + UVA) was 29.69 and the “AVG Ct DSG1” value (EFT-400 tissues [3]; UVB + UVA) was 21.03. The “AVG Ct ERCC1” value (EFT-400 tissues [3]; UVB + UVA) was 24.08, the “AVG Ct FN1” value (EFT-400 tissues [3]; UVB + UVA) was 20.79 and the “AVG Ct GAPDH (housekeeping gene)” value (EFT-400 tissues [3]; UVB + UVA) was 18.39. For the same compound, the “AVG Ct GDF15” value (EFT-400 tissues [3]; UVB + UVA) was 21.74, the “AVG Ct GSTM3” value (EFT-400 tissues [3]; UVB + UVA) was 28.37 and the “AVG Ct HSPA8” value (EFT-400 tissues [3]; UVB + UVA) was 20.14. For the same compound, the “AVG Ct IL1A” value (EFT-400 tissues [3]; UVB + UVA) was 25.87, the “AVG Ct IL1B” value (EFT-400 tissues [3]; UVB + UVA) was 28.03 and the “AVG Ct IL8” value (EFT-400 tissues [3]; UVB + UVA) was 20.61. For the same compound, the “AVG Ct KAL1” value (EFT-400 tissues [3]; UVB + UVA) was 31.72, the “AVG Ct KRT16” value (EFT-400 tissues [3]; UVB + UVA) was 17.92 and the “AVG Ct LAMA1” value (EFT-400 tissues [3]; UVB + UVA) was 28.49. The “AVG Ct LAMA2” value (EFT-400 tissues [3]; UVB + UVA) was 25.42, the “AVG Ct LAMA3” value (EFT-400 tissues [3]; UVB + UVA) was 24.01 and the “AVG Ct LAMA5” value (EFT-400 tissues [3]; UVB + UVA) was 27.71. For the same compound, the “AVG Ct LAMB1” value (EFT-400 tissues [3]; UVB + UVA) was 22.85, the “AVG Ct LAMB3” value (EFT-400 tissues [3]; UVB + UVA) was 24.92 and the “AVG Ct LAMC1” value (EFT-400 tissues [3]; UVB + UVA) was 22.69. For the same compound, the “AVG Ct MMP1” value (EFT-400 tissues [3]; UVB + UVA) was 20.16, the “AVG Ct MMP2” value (EFT-400 tissues [3]; UVB + UVA) was 18.5 and the “AVG Ct MT2A” value (EFT-400 tissues [3]; UVB + UVA) was 16.4. For the same compound, the “AVG Ct PCNA” value (EFT-400 tissues [3]; UVB + UVA) was 23.21, the “AVG Ct RPL13A (housekeeping gene)” value (EFT-400 tissues [3]; UVB + UVA) was 20.68 and the “AVG Ct SIRT1” value (EFT-400 tissues [3]; UVB + UVA) was 25.31. The “AVG Ct TGFBI” value (EFT-400 tissues [3]; UVB + UVA) was 22.03, the “AVG Ct THBS3” value (EFT-400 tissues [3]; UVB + UVA) was 28.97 and the “AVG Ct TNC” value (EFT-400 tissues [3]; UVB + UVA) was 21.29. The “AVG Ct VTN” value (EFT-400 tissues [3]; UVB + UVA) was 32.61, the “extent of gene expression changes in the absence of UV irradiation, compared to NELL1” value (EFT-400 tissues [3]; no UV) was “more changes compared to NELL1” and the “gene expression in the absence of UV irradiation” value (EFT-400 tissues [3]; no UV) was “some decreases in gene expression”.
